Source: PMC2807730 (Bioorganic & medicinal chemistry letters, 2009)

Assays:
Dyrk1A = Dyrk1A (Homo sapiens, UniProt Q13627); assay: Dyrk1A inhibition; format: biochemical; conditions: data not shown
Clk4 [1] = target: T1, Clk4 (Homo sapiens, UniProt Q9HAZ1); assay: bioluminescent, luciferase-based Clk4 assay
Clk1 = Clk1 (Homo sapiens, UniProt P49759); conditions: cited from earlier work
Clk4 [2] = target: T1, Clk4; conditions: cited from earlier work

T1 sequence (Q9HAZ1 whole entry): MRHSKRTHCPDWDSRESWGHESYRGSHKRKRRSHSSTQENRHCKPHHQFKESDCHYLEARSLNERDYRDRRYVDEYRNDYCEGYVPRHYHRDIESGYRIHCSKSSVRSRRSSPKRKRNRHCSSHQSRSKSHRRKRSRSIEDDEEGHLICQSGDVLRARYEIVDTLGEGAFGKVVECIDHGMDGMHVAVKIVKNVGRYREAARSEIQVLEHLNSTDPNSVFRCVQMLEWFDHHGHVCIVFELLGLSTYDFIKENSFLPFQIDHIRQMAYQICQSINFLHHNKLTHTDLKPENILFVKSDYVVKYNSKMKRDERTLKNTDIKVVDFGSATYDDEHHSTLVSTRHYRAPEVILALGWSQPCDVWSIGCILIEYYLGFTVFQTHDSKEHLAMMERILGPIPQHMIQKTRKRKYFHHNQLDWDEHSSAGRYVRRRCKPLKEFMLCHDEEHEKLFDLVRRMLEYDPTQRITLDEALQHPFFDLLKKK
Clk1, sequence (P49759 whole entry): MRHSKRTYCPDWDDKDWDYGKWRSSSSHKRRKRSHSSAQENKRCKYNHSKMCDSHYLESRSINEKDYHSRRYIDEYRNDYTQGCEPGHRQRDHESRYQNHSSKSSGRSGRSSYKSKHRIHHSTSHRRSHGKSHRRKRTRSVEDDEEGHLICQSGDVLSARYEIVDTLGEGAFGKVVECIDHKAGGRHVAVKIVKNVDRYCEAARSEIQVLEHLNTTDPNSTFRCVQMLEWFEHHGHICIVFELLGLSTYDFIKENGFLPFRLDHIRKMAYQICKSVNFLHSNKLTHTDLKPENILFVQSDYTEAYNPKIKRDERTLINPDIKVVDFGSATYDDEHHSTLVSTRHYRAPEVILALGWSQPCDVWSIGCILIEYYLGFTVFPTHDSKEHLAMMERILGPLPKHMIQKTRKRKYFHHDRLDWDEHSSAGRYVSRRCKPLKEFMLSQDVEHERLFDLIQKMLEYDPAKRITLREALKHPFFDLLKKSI

inhibition of Dyrk1A (Dyrk1A) | enzyme inhibition in ATP dose response (Clk4 [1]; compound constant at 70 nM, high ATP concentrations (>200 μM), data not shown) | potency in peptide dose response (Clk4 [1]; compound constant at 70 nM, increasing dose of peptide, data not shown) | change of potency with ATP concentration (Clk4 [1]; dose response at 1, 50, 100 μM ATP (Figure 4A)) | change of potency with peptide substrate concentration (Clk4 [1]; dose response at 50, 100, 200 μM peptide (Figure 4B)) | Structure (SMILES) | activity versus numerous EGFR mutants (EGFR mutants) | IC50 values versus Clk1 (Clk1) | IC50 values versus Clk4 (Clk4 [2])
potent inhibitors | sharp decline in enzyme inhibition | did not effect the potency | loss in potency when ATP levels rise | no affect on the compound potency | c1csc(CNc2ncnc3ccc(-c4ccc5c(c4)OCO5)cc23)c1 [compound 4] | > 250 nM | – | –
– | – | – | – | – | CCN1/C(=C/C(C)=O)Sc2ccc(OC)cc21 [compound 1] | – | low-nanomolar | low-nanomolar
